ChEMBL document CHEMBL4419120, “Bitter taste receptors” (2015)
Active and inactive are the calls of the source.

Experiments:
[1] = target: T1, Taste receptor type 2 member 16 (Homo sapiens, UniProt Q9NYV7); test: Activity at human TAS2R16 expressed in HEK-293T-Galpha16-gustducin44 cells assessed as effect on calcium response by FLIPR assay; assay type: functional, cell-based
T1 sequence (Q9NYV7 whole entry): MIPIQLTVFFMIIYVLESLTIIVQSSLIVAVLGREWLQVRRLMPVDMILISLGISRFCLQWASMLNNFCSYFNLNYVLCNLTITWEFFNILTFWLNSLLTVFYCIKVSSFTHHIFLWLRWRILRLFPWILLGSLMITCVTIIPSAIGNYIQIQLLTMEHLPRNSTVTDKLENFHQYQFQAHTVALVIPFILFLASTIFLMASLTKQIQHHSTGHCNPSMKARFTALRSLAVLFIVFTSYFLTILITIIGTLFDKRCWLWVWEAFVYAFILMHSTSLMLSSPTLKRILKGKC

Homo sapiens [2] = test: In-vivo activity at TAS2R16 in trained human taste panelists assessed as threshold concentration of compound at which point panelists detects bitterness intensity of compound in sensory panel room at 22 to 25 degC by triangle test with tap water as solvent; assay type: functional
Homo sapiens [3] = test: In-vivo activity at TAS2R16 in trained human taste panelists assessed as detection of bitterness intensity of compound in sensory panel room at 22 to 25 degC by triangle test with tap water as solvent; assay type: functional, organism-based
[4] = target: T2, Taste receptor type 2 member 16 (Homo sapiens) (UniProt Q9NYV7); test: Activity at human TAS2R16 expressed in HEK293/15 cells assessed as threshold concentration of compound at which point receptor detects compounds by measuring calcium response by FLIPR assay; assay type: functional, cell-based
T2 sequence (whole entry): T1 sequence (Q9NYV7 whole entry)

[5] = target: T2, Taste receptor type 2 member 16 (Homo sapiens); test: Activity at human TAS2R16 expressed in HEK-293T-Galpha16-gustducin44 cells assessed as threshold concentration of compound at which point receptor detects compounds by measuring calcium response by FLIPR assay; assay type: functional, cell-based
[6] = target: T1, Taste receptor type 2 member 16; test: Activity at human TAS2R16 expressed in HEK293/15 cells assessed as effect on calcium response by FLIPR assay; assay type: functional, cell-based
[7] = target: T3, Taste receptor type 2 member 38 (Homo sapiens) (UniProt P59533); test: Activity at human TAS2R38 expressed in HEK-293T-Galpha16-gustducin44 cells assessed as threshold concentration of compound at which point receptor detects compounds by measuring calcium response by FLIPR assay; assay type: functional, cell-based
T3 sequence (whole entry): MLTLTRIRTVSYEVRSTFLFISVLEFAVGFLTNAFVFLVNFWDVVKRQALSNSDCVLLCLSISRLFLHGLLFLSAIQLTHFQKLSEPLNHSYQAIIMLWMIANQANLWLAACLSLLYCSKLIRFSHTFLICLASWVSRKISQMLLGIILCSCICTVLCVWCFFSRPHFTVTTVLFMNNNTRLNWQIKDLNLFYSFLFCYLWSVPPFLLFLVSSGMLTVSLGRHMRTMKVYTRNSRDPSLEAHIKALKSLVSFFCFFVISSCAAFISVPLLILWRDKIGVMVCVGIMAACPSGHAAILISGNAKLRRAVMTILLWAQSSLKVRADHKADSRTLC

[8] = target: T2, Taste receptor type 2 member 16 (Homo sapiens); test: Activity at human TAS2R16 expressed in HEK293/15 cells assessed as threshold concentration of compound at which point receptor detects compounds by measuring calcium response up to 100 mM by FLIPR assay; assay type: functional, cell-based
[9] = target: T2, Taste receptor type 2 member 16 (Homo sapiens); test: Activity at human TAS2R16 expressed in HEK293/15 cells assessed as effect on calcium response up to 100 mM by FLIPR assay; assay type: functional, cell-based
[10] = target: T4, Taste receptor type 2 member 38 (Homo sapiens, UniProt P59533); test: Activity at human TAS2R38 expressed in HEK-293T-Galpha16-gustducin44 cells assessed as effect on calcium response by FLIPR assay; assay type: functional, cell-based
T4 sequence (P59533 whole entry): T3 sequence (whole entry)

[11] = target: T5, Taste receptor type 2 member 10 (Homo sapiens, UniProt Q9NYW0); test: Activity at human TAS2R10 expressed in HEK-293T-Galpha16-gustducin44 cells assessed as effect on calcium response by FLIPR assay; assay type: functional, cell-based
T5 sequence (Q9NYW0 whole entry): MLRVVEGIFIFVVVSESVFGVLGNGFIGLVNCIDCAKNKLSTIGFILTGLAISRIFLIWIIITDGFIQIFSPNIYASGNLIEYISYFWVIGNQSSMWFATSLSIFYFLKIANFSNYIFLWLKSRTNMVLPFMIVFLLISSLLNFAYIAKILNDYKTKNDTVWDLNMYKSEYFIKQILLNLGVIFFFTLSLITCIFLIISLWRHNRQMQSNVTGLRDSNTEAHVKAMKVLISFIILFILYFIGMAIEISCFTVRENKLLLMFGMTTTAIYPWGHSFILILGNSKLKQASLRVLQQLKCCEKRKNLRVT

[12] = target: T6, Taste receptor type 2 member 10 (Homo sapiens) (UniProt Q9NYW0); test: Activity at human TAS2R10 expressed in HEK293/15 cells assessed as compound concentration showing threshold of activation on calcium response by FLIPR assay; assay type: functional, cell-based
T6 sequence (whole entry): T5 sequence (Q9NYW0 whole entry)

[13] = target: T6, Taste receptor type 2 member 10 (Homo sapiens); test: Activity at human TAS2R10 expressed in HEK-293T-Galpha16-gustducin44 cells assessed as threshold concentration of compound at which point receptor detects compounds by measuring calcium response by FLIPR assay; assay type: functional, cell-based
[14] = target: T3, Taste receptor type 2 member 38 (Homo sapiens); test: Activity at human TAS2R38 expressed in HEK-293T-Galpha16-gustducin44 cells assessed as concentration of compound which reacts with receptor by measuring calcium response by FLIPR assay; assay type: functional, cell-based
[15] = target: T7, Taste receptor type 2 member 14 (Homo sapiens) (UniProt Q9NYV8); test: Activity at human TAS2R14 expressed in HEK-293T-Galpha16-gustducin44 cells assessed as concentration of compound which reacts with receptor by measuring calcium response by FLIPR assay; assay type: functional, cell-based
T7 sequence (whole entry): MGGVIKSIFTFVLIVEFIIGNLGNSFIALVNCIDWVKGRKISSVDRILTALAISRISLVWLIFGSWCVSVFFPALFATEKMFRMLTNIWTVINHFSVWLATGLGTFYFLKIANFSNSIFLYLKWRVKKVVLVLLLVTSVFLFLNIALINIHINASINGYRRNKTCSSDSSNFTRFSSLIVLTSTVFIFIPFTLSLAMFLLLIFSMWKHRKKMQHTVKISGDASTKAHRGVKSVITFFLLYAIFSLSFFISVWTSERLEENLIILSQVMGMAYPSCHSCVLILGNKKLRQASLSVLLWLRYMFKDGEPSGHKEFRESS

OC[C@H]1O[C@@H](Oc2ccccc2)[C@H](O)[C@@H](O)[C@@H]1O
EC50 [1]: 1100 µM | Activity (Homo sapiens [2]): 0.1 mM | EC50 (Homo sapiens [3]): 700 µM | Activity [4]: 0.07 mM | Activity [5]: 0.07 mM | EC50 [6]: 1100 µM

CC/N=C(/N)S
Activity [7]: 30 µM

O=[N+]([O-])c1ccc(S[C@@H]2O[C@H](CO)[C@@H](O)[C@H](O)[C@H]2O)cc1
Activity [5]: 1 to 5 mM

OC[C@H]1O[C@H](Oc2ccccc2)[C@H](O)[C@@H](O)[C@@H]1O
Activity (Homo sapiens [2]): 9 mM | EC50 (Homo sapiens [3]): 50000 µM | Activity [8]: inactive | Activity [9]: inactive

OCc1ccccc1O[C@@H]1O[C@H](CO)[C@@H](O)[C@H](O)[C@H]1O [SALICIN]
EC50 [1]: 1400 µM | Activity (Homo sapiens [2]): 0.2 mM | EC50 (Homo sapiens [3]): 1100 µM | Activity [4]: 0.07 mM | Activity [5]: 0.07 mM | EC50 [6]: 1400 µM

CC(=O)NC(N)=S
EC50 [10]: 15 µM | Activity [7]: 2 µM

OC[C@H]1O[C@@H](Oc2ccc(O)cc2)[C@H](O)[C@@H](O)[C@@H]1O [ARBUTIN]
EC50 [1]: 5800 µM | Activity (Homo sapiens [2]): 0.9 mM | EC50 (Homo sapiens [3]): 5400 µM | Activity [4]: 0.5 mM | Activity [5]: 0.5 mM | EC50 [6]: 5800 µM

O=[N+]([O-])c1ccc(O[C@@H]2O[C@H](CO)[C@@H](O)[C@H](O)[C@H]2O)cc1
Activity [5]: 1 to 3 mM

OC[C@H]1O[C@@H](Oc2ccccc2)[C@H](O)[C@@H](O)[C@H]1O
Activity (Homo sapiens [2]): 40 mM | Activity [8]: inactive | Activity [9]: inactive

N#C[C@H](O[C@@H]1O[C@H](CO[C@@H]2O[C@H](CO)[C@@H](O)[C@H](O)[C@H]2O)[C@@H](O)[C@H](O)[C@H]1O)c1ccccc1 [AMYGDALIN]
EC50 [1]: 20000 µM | Activity [4]: 2.3 mM | Activity [5]: 2.3 mM | EC50 [6]: 20000 µM

O=[N+]([O-])c1ccc(O[C@@H]2O[C@H](CO)[C@@H](O)[C@H](O)[C@@H]2O)cc1
Activity [5]: 1 to 3 mM

CO[C@@H]1O[C@H](CO)[C@@H](O)[C@H](O)[C@H]1O
EC50 [1]: 32000 µM | Activity (Homo sapiens [2]): 32 mM | Activity [4]: 15 mM | Activity [5]: 15 mM

O=c1cc(-c2ccccc2)[nH]c(=S)[nH]1
EC50 [10]: 0.5 µM | Activity [7]: 0.15 µM

O=C1C[C@@H]2OCC=C3CN4CC[C@]56c7ccccc7N1[C@H]5[C@H]2[C@H]3C[C@H]46 [STRYCHNINE]
EC50 [11]: 40 µM | Activity [12]: 0.1 µM | Activity [13]: 0.003 mM

O=c1ccc2cc(O[C@@H]3O[C@H](CO)[C@@H](O)[C@H](O)[C@H]3O)c(O)cc2o1 [ESCULIN]
Activity (Homo sapiens [2]): 4 mM | Activity [4]: 4 mM | Activity [5]: 4 mM

O=C1CC(=O)NC(=S)N1
Activity [14]: 10 mM

CC(=S)Nc1ccccc1
EC50 [10]: 18 µM | Activity [7]: 3 µM

N[C@@H](Cc1ccc(O)cc1)C(=O)O
Activity [15]: 1 mM

O=Cc1ccccc1O[C@@H]1O[C@H](CO)[C@@H](O)[C@H](O)[C@H]1O [HELICIN]
EC50 [1]: 2300 µM | Activity (Homo sapiens [2]): 0.4 mM | EC50 (Homo sapiens [3]): 2200 µM | Activity [4]: 0.3 mM | Activity [5]: 0.3 mM | EC50 [6]: 2300 µM

CN(C)C=S
EC50 [10]: 55 µM | Activity [7]: 10 µM

O=c1cc[nH]c(=S)[nH]1 [THIOURACIL]
EC50 [10]: 2000 µM | Activity [7]: 300 µM

CCCc1cc(=O)[nH]c(=S)[nH]1 [PROPYLTHIOURACIL]
EC50 [10]: 2 µM | Activity [7]: 0.3 µM

COc1cc2c(cc1OC)[C@@]13CCN4CC5=CCO[C@H]6CC(=O)N2[C@H]1[C@H]6[C@H]5C[C@H]43 [BRUCINE]
EC50 [11]: 60 µM | Activity [12]: Active | Activity [13]: 0.01 mM

OC[C@H]1O[C@@H](Oc2ccc3ccccc3c2)[C@H](O)[C@@H](O)[C@@H]1O
EC50 [1]: 1000 µM | Activity (Homo sapiens [2]): 0.2 mM | EC50 (Homo sapiens [3]): 1400 µM | Activity [4]: 0.4 mM | Activity [5]: 0.4 mM | EC50 [6]: 1000 µM

CNC(N)=S
EC50 [10]: 600 to 800 µM | Activity [7]: 100 µM

CCNC(N)=S
EC50 [10]: 260 µM

O=[N+]([O-])c1ccccc1O[C@@H]1O[C@H](CO)[C@@H](O)[C@H](O)[C@H]1O
Activity [4]: 1.5 mM | Activity [5]: 0.3 to 1 mM

NC(=S)Nc1ccccc1 [PHENYLTHIOUREA]
EC50 [10]: 2 µM | Activity [7]: 0.3 µM

CC(=N)S
Activity [7]: 100 µM

CC[N+](CC)(CC(=O)Nc1c(C)cccc1C)Cc1ccccc1 [DENATONIUM BENZOATE]
EC50 [11]: 70 µM | Activity [13]: 0.003 mM

S=C1NCCN1
Activity [7]: 10 µM

CN(C)C(=S)N(C)C
EC50 [10]: 100 µM | Activity [7]: 10 to 30 µM
